Laboratory results reported in the supplement of paper PMC10307832.

What was measured:
Test in all cases: relative viability (nuclei count vs DMSO), 5 days (fraction); higher = more cells survive
BX 795 = compound: O=C(NCCCNc1nc(Nc2cccc(NC(=O)N3CCCC3)c2)ncc1I)c1cccs1 [BX 795]
In short: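 Nuclei counted with MetaXpress define viability as the ratio of treated to vehicle wells, given as a median across plates. The lung cancer cell lines were in 1536-well plates, pinned with five √10-spaced library-drug doses and imaged at 4× after 5 days and Hoechst staining. Plates passed with control CV below 25% and at least one doubling.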

BX 795 + OSI-027 = compound: O=C(NCCCNc1nc(Nc2cccc(NC(=O)N3CCCC3)c2)ncc1I)c1cccs1 [BX 795] + COc1cccc2cc(-c3nc([C@H]4CC[C@H](C(=O)O)CC4)n4ncnc(N)c34)[nH]c12 [OSI-027] (partner 0.5 µM)
In short: (§1)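 Relative viability is defined as nuclei in treated wells over nuclei in vehicle wells. Duplicate plates were run and medians reported. Lung cancer cell lines in 1536-well plates were dosed by pin tool one day after seeding, with one drug or with a fixed anchor-drug dose plus five library-drug doses (not always all listed) in √10 steps, and nuclei were counted after 5 days.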

BX 795 + Linsitinib = compound: O=C(NCCCNc1nc(Nc2cccc(NC(=O)N3CCCC3)c2)ncc1I)c1cccs1 [BX 795] + C[C@]1(O)C[C@@H](c2nc(-c3ccc4ccc(-c5ccccc5)nc4c3)c3c(N)nccn32)C1 [Linsitinib] (partner 1 µM)
In short: as §1

BX 795 + Tozasertib = compound: O=C(NCCCNc1nc(Nc2cccc(NC(=O)N3CCCC3)c2)ncc1I)c1cccs1 [BX 795] + Cc1cc(Nc2cc(N3CCN(C)CC3)nc(Sc3ccc(NC(=O)C4CC4)cc3)n2)n[nH]1 [Tozasertib] (partner 0.1 µM)
In short: as §1

BX 795 + AZD7762 = compound: O=C(NCCCNc1nc(Nc2cccc(NC(=O)N3CCCC3)c2)ncc1I)c1cccs1 [BX 795] + NC(=O)Nc1cc(-c2cccc(F)c2)sc1C(=O)N[C@H]1CCCNC1 [AZD7762] (partner 0.2 µM)
In short: as §1

Cell Line | relative viability (BX 795; 0.04 µM) | relative viability (BX 795; 0.1265 µM) | relative viability (BX 795; 0.4 µM) | relative viability (BX 795; 1.265 µM) | relative viability (BX 795 + OSI-027; first compound 0.04 µM) | relative viability (BX 795 + OSI-027; first compound 0.1265 µM) | relative viability (BX 795 + OSI-027; first compound 0.4 µM) | relative viability (BX 795 + OSI-027; first compound 1.265 µM) | relative viability (BX 795 + Linsitinib; first compound 0.04 µM) | relative viability (BX 795 + Linsitinib; first compound 0.1265 µM) | relative viability (BX 795 + Linsitinib; first compound 0.4 µM) | relative viability (BX 795 + Linsitinib; first compound 1.265 µM) | relative viability (BX 795 + Tozasertib; first compound 0.04 µM) | relative viability (BX 795 + Tozasertib; first compound 0.1265 µM) | relative viability (BX 795 + Tozasertib; first compound 0.4 µM) | relative viability (BX 795 + Tozasertib; first compound 1.265 µM) | relative viability (BX 795 + AZD7762; first compound 0.04 µM) | relative viability (BX 795 + AZD7762; first compound 0.1265 µM) | relative viability (BX 795 + AZD7762; first compound 0.4 µM) | relative viability (BX 795 + AZD7762; first compound 1.265 µM)
LCLC-97TM1 | 1.11 | 1.02 | 1.1 | 0.716 | 0.462 | 0.604 | 0.673 | 0.332 | 0.156 | 0.204 | 0.198 | 0.153 | 0.356 | 0.24 | 0.305 | 0.232 | 0.334 | 0.352 | 0.239 | 0.346
LCLC-103H | 1.02 | 1.01 | 0.937 | 0.985 | 0.476 | 0.528 | 0.488 | 0.501 | 1.12 | 1.16 | 0.901 | 1.09 | 0.476 | 0.475 | 0.477 | 0.379 | 0.706 | 0.878 | 0.712 | 0.849
LK-2 | 0.998 | 1.02 | 0.863 | 0.929 | 0.248 | 0.194 | 0.186 | 0.2 | 0.518 | 0.396 | 0.484 | 0.393 | 0.164 | 0.185 | 0.16 | 0.175 | 0.367 | 0.33 | 0.445 | 0.3
LOU-NH91 | 1.01 | 0.967 | 0.982 | 0.961 | 0.794 | 0.75 | 0.735 | 0.724 | 0.925 | 0.956 | 0.802 | 0.94 | 0.699 | 0.609 | 0.525 | 0.568 | 0.757 | 0.765 | 0.71 | 0.722
LU99A | 0.946 | 0.894 | 0.84 | 0.778 | 0.306 | 0.296 | 0.287 | 0.257 | 0.552 | 0.631 | 0.467 | 0.225 | 0.3 | 0.286 | 0.287 | 0.261 | 0.344 | 0.355 | 0.347 | 0.24
LXF-289 | 0.962 | 1 | 1.02 | 0.9 | 0.793 | 0.898 | 0.959 | 0.681 | 0.969 | 0.949 | 1.03 | 0.678 | 0.209 | 0.155 | 0.154 | 0.142 | 1.07 | 1.14 | 0.995 | 1.06
NCI-H23 | 1.07 | 0.952 | 0.896 | 0.769 | 0.6 | 0.701 | 0.621 | 0.506 | 0.584 | 0.655 | 0.441 | 0.387 | 0.327 | 0.639 | 0.314 | 0.234 | 0.38 | 0.231 | 0.237 | 0.345
NCI-H322M | 1.09 | 0.964 | 1.12 | 1.25 | 0.614 | 0.587 | 0.414 | 0.559 | 0.984 | 1.01 | 1.02 | 0.967 | 0.456 | 0.488 | 0.372 | 0.47 | 0.62 | 0.532 | 0.555 | 0.753
NCI-H358 | 0.955 | 0.905 | 0.76 | 0.513 | 0.761 | 0.796 | 0.666 | 0.513 | 0.679 | 0.705 | 0.601 | 0.228 | 0.1 | 0.107 | 0.0928 | 0.098 | 0.518 | 0.556 | 0.372 | 0.433
NCI-H441 | 1.39 | 1.24 | 1.48 | 0.802 | 0.731 | 0.57 | 0.891 | 0.399 | 0.667 | 0.528 | 0.854 | 0.326 | 0.857 | 0.567 | 0.834 | 0.376 | 1.23 | 1.21 | 1.07 | 0.866
NCI-H460 | 0.995 | 1.08 | 0.991 | 0.954 | 0.633 | 0.561 | 0.543 | 0.224 | 0.708 | 1.01 | 0.605 | 0.281 | 0.497 | 0.44 | 0.0824 | 0.184 | 0.587 | 0.616 | 0.664 | 0.767
NCI-H596 | 1.05 | 1.04 | 1 | 0.933 | 0.866 | 0.705 | 0.664 | 0.684 | 1.09 | 1.25 | 1.16 | 1.03 | 0.963 | 0.906 | 1.03 | 0.699 | 1.11 | 0.956 | 1.14 | 1.03
NCI-H647 | 0.81 | 1.02 | 0.891 | 0.82 | 0.723 | 0.826 | 0.581 | 0.584 | 1.25 | 1.16 | 1.28 | 0.601 | 0.256 | 0.352 | 0.218 | 0.233 | 0.554 | 0.493 | 0.43 | 0.363
NCI-H650 | 0.933 | 1.02 | 0.954 | 0.805 | 0.527 | 0.556 | 0.559 | 0.391 | 0.752 | 0.739 | 1.03 | 0.549 | 0.864 | 0.769 | 0.583 | 0.488 | 0.843 | 0.908 | 0.701 | 1.05
NCI-H727 | 1.01 | 0.899 | 0.978 | 1 | 0.761 | 0.635 | 0.537 | 0.557 | 0.294 | 0.247 | 0.277 | 0.24 | 0.683 | 0.706 | 0.512 | 0.546 | 0.614 | 0.535 | 0.671 | 0.531
